Source: patent US12600725B2 (Memorial Sloan-Kettering Cancer Center, priority 2013, dated 2026)

How the values were obtained:
[1] = target: Grp94 (Canis lupus familiaris, UniProt P41148); details: read-out: Grp94; FP competition, 6 nM Cy3B-GM, 10 nM protein, 4° C. for 24 h
[2] = target: Hsp90α (Homo sapiens, UniProt P07900); experiment: biochemical; details: FP competition, 6 nM Cy3B-GM, 10 nM protein, 4° C. for 24 h

Sequence of Grp94 (P41148 with tags, fused parts or gaps DELINS287-327GGGG): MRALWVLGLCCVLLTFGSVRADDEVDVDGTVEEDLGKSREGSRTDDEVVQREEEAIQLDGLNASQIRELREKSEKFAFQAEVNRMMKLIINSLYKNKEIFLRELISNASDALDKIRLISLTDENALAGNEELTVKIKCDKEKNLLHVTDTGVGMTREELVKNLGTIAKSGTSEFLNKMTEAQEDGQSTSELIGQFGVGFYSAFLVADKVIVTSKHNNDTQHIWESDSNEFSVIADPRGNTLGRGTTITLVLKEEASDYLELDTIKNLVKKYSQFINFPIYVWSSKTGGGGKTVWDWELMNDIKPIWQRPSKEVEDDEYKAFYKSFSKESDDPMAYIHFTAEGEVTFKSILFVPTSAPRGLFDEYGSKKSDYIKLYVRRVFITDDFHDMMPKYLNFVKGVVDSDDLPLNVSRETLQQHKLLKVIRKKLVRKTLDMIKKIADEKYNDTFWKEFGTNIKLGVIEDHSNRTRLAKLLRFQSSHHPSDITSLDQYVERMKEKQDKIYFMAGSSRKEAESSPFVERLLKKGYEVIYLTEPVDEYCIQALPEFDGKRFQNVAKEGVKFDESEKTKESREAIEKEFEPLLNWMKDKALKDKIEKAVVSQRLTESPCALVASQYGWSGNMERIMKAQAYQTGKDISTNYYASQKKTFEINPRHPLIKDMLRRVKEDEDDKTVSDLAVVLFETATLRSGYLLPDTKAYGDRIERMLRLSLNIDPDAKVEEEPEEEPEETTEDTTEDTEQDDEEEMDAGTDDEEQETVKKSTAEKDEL

| SMILES | IC50 [1] | IC50 [2] |
| --- | --- | --- |
| Nc1ncn(CCCC(F)(F)F)c2nc(Sc3cc(Cl)cc(Cl)c3)nc1-2 | > 10 µM | > 50 µM |
| C#CCCCn1c(Sc2cc(C#N)cc(C#N)c2)nc2c(N)ncnc21 [HJP-III-26, 5-((6-Amino-9-(pent-4-yn-1-yl)-9H-purin-8-yl)thio)isophthalonitrile] | – | 60.3 µM |
| C#CCCCn1c(Sc2ccc(C#N)c(C(F)(F)F)c2)nc2c(N)ncnc21 [HJP-III-29, 4-((6-Amino-9-(pent-4-yn-1-yl)-9H-purin-8-yl)thio)-2-(trifluoromethyl)benzonitrile] | 2.41 µM | 4.51 µM |
| C#CCCCn1c(Sc2ccc(C#N)c(Br)c2)nc2c(N)ncnc21 [HJP-III-32, 4-((6-Amino-9-(pent-4-yn-1-yl)-9H-purin-8-yl)thio)-2-bromobenzonitrile] | 4.28 µM | 14.3 µM |
| C#CCCCn1c(Sc2ccc(C#N)c(Cl)c2)nc2c(N)ncnc21 [HJP-III-33, 4-((6-Amino-9-(pent-4-yn-1-yl)-9H-purin-8-yl)thio)-2-chlorobenzonitrile] | 3.45 µM | 7.6 µM |
| C#CCCCn1c(Cc2c(C)cc(C)cc2C)nc2c(N)ncnc21 [HJP-V-36, 9-(Pent-4-yn-1-yl)-8-(2,4,6-trimethylbenzyl)-9H-purin-6-amine] | > 5 µM | > 10 µM |
| C#CCCCn1c(Cc2ccc(Cl)cc2Cl)nc2c(N)ncnc21 [HJP-V-37, 8-(2,4-Dichlorobenzyl)-9-(pent-4-yn-1-yl)-9H-purin-6-amine] | 0.7 µM | > 10 µM |
| C#CCCCn1c(C(=O)c2ccc(Cl)cc2Cl)nc2c(N)ncnc21 [HJP-V-37T, (6-Amino-9-(pent-4-yn-1-yl)-9H-purin-8-yl)(2,4-dichlorophenyl)methanone] | 0.13 to 0.17 µM | > 25 µM |
| C#CCCCn1c(Cc2c(Cl)cccc2Cl)nc2c(N)ncnc21 [HJP-V-38, 8-(2,6-Dichlorobenzyl)-9-(pent-4-yn-1-yl)-9H-purin-6-amine] | 13.8 µM | 14.4 µM |
| C#CCCCn1c(Cc2cc(Cl)cc(Cl)c2)nc2c(N)ncnc21 [HJP-V-39, 8-(3,5-Dichlorobenzyl)-9-(pent-4-yn-1-yl)-9H-purin-6-amine] | 0.5 µM | > 10 µM |
| C#CCCCn1c(C(=O)c2cc(Cl)cc(Cl)c2)nc2c(N)ncnc21 [HJP-V-39T, (6-Amino-9-(pent-4-yn-1-yl)-9H-purin-8-yl)(3,5-dichlorophenyl)methanone] | – | > 10 µM |
| C#CCCCn1c(Oc2ccc(Cl)cc2Cl)nc2c(N)ncnc21 [HJP-V-45, 8-(2,4-Dichlorophenoxy)-9-(pent-4-yn-1-yl)-9H-purin-6-amine] | 0.5 µM | > 10 µM |
| C#CCCCn1c(Cc2cc(Cl)ccc2Cl)nc2c(N)ncnc21 [HJP-V-54, 8-(2,5-Dichlorobenzyl)-9-(pent-4-yn-1-yl)-9H-purin-6-amine] | 0.75 µM | > 10 µM |
| C#CCCCn1c(Cc2cccc(Cl)c2Cl)nc2c(N)ncnc21 [HJP-V-55, 8-(2,3-Dichlorobenzyl)-9-(pent-4-yn-1-yl)-9H-purin-6-amine] | – | > 10 µM |
| C#CCCCn1c([S+]([O-])c2ccc(Cl)cc2Cl)nc2c(N)ncnc21 (stereo not shown) [HJP-V-62M, 8-((2,4-Dichlorophenyl)sulfinyl)-9-(pent-4-yn-1-yl)-9H-purin-6-amine] | 5.4 µM | 24.1 µM |
| C#CCCCn1c(S(=O)(=O)c2ccc(Cl)cc2Cl)nc2c(N)ncnc21 [HJP-V-62T, 8-((2,4-Dichlorophenyl)sulfonyl)-9-(pent-4-yn-1-yl)-9H-purin-6-amine] | 4.7 µM | > 25 µM |
| CC(O)CNCCn1c(Sc2ccc(Cl)cc2Cl)nc2c(N)ncnc21 (stereo not shown) [HJP-V-82, 1-((2-(6-Amino-8-((2,4-dichlorophenyl)thio)-9H-purin-9-yl)ethyl)amino)propan-2-ol] | 0.23 µM | 31.3 µM |

| SMILES | IC50 [1] | IC50 [2] |
| --- | --- | --- |
| CC(CO)NCCn1c(Sc2ccc(Cl)cc2Cl)nc2c(N)ncnc21 (stereo not shown) [HJP-V-86, 2-((2-(6-Amino-8-((2,4-dichlorophenyl)thio)-9H-purin-9-yl)ethyl)amino)propan-1-ol] | 0.21 µM | 7.6 µM |
| Nc1ncnc2c1nc(Sc1ccc(Cl)cc1Cl)n2CCc1ccccn1 [HJP-V-93, 8-((2,4-Dichlorophenyl)thio)-9-(2-(pyridin-2-yl)ethyl)-9H-purin-6-amine] | 1.9 µM | > 50 µM |
| Nc1ncnc2c1nc(Sc1ccc(Cl)cc1Cl)n2CCc1ccccc1F [HJP-V-96, 8-((2,4-Dichlorophenyl)thio)-9-(2-fluorophenethyl)-9H-purin-6-amine] | 1.9 µM | > 50 µM |
| Nc1ncnc2c1nc(Sc1ccc(Cl)cc1Cl)n2CCc1ccccc1Cl [HJP-V-97, 9-(2-Chlorophenethyl)-8-((2,4-dichlorophenyl)thio)-9H-purin-6-amine] | 2.2 µM | 186 µM |
| Nc1ncnc2c1nc(Sc1ccc(Cl)cc1Cl)n2CCc1ccccc1C(F)(F)F [HJP-V-98, 8-((2,4-Dichlorophenyl)thio)-9-(2-(trifluoromethyl)phenethyl)-9H-purin-6-amine] | 0.71 µM | > 50 µM |
| CC(C)NCCCn1c(Sc2cc(Cl)c(Cl)cc2Cl)nc2c(N)ncnc21 [HJP-V-103-N9, 9-(3-(Isopropylamino)propyl)-8-((2,4,5-trichlorophenyl)thio)-9H-purin-6-amine] | 0.35 µM | 5.8 µM |
| C[C@@H](O)CNCCn1c(Sc2ccc(Cl)cc2Cl)nc2c(N)ncnc21 [HJP-V-104, 1(R)-1-((2-(6-Amino-8-((2,4-dichlorophenyl)thio)-9H-purin-9-yl)ethyl)amino)propan-2-ol] | 1.5 µM | 55.8 µM |
| C[C@H](O)CNCCn1c(Sc2ccc(Cl)cc2Cl)nc2c(N)ncnc21 [HJP-V-105, 1(S)-1-((2-(6-Amino-8-((2,4-dichlorophenyl)thio)-9H-purin-9-yl)ethyl)amino)propan-2-ol] | 0.35 µM | > 50 µM |
| C#CCC(CC)n1c(Sc2ccc(Cl)cc2Cl)nc2c(N)ncnc21 (stereo not shown) [HJP-V-117, 8-((2,4-dichlorophenyl)thio)-9-(hex-5-yn-3-yl)-9H-purin-6-amine] | 0.92 µM | – |
| CC(C)NCCCn1c(Sc2cc(Cl)cc(Cl)c2I)nc2c(N)ncnc21 [HJP-V-145] | 0.68 µM | – |
| CC(C)NCCCn1c(Sc2ccc(F)cc2Cl)nc2c(N)ncnc21 [HJP-VI-25, 8-((2-chloro-4-fluorophenyl)thio)-9-(3-(isopropylamino)propyl)-9H-purin-6-amine] | – | > 50 µM |
| CC(C)NCCCn1c(Sc2ccc(Cl)cc2N)nc2c(N)ncnc21 [HJP-VI-34, 8-((2-amino-4-chlorophenyl)thio)-9-(3-(isopropylamino)propyl)-9H-purin-6-amine] | – | > 50 µM |
| CC#Cc1cc(Cl)cc(Sc2nc3c(N)ncnc3n2CCCNC(C)C)c1 [HJP-VI-50, 8-((3-chloro-5-(prop-1-yn-1-yl)phenyl)thio)-9-(3-(isopropylamino)propyl)-9H-purin-6-amine] | – | > 50 µM |
| CC(C)NCCCn1c(Sc2cc(Cl)cc(Cl)c2)nc2c(N)nc(F)nc21 [HJP-VI-69, 8-((3,5-dichlorophenyl)thio)-2-fluoro-9-(3-(isopropylamino)propyl)-9H-purin-6-amine] | 0.135 µM | – |
| C/C=C(\C)c1cc(Cl)cc(Sc2nc3c(N)ncnc3n2CCCNC(C)C)c1 [HJP-VI-79, (E)-8-((3-(but-2-en-2-yl)-5-chlorophenyl)thio)-9-(3-(isopropylamino)propyl)-9H-purin-6-amine] | 0.124 µM | – |
| C#CCCCn1cnc(N)c2nc(Sc3cc(Cl)cc(Cl)c3)nc1-2 [PU-H41] | – | > 100 µM |
